According to ChEMBL document CHEMBL1201862, “PubChem BioAssay data set” (2004):
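Method: 48-hour compound exposure of cells in 96-well plates, five concentrations, linear interpolation of endpoints. Here, GI50 denotes the concentration required for 50% inhibition of growth.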 The source made the active and inactive calls. Cut-off read from the data, not from the text of the source: active = GI50 up to about 1.1 µM and inactive = higher.

How the values were obtained:
Assay in all cases: NCI anticancer screen, dose series, 48 h
[1] = tested on: 786-0
[2] = tested on: A498
[3] = tested on: A549
[4] = tested on: ACHN
[5] = tested on: BT-549
[6] = tested on: CAKI-1
[7] = tested on: CCRF-CEM
[8] = tested on: COLO 205
[9] = tested on: DU-145
[10] = tested on: EKVX
[11] = tested on: HCT-116
[12] = tested on: HCT-15
[13] = tested on: HL-60
[14] = tested on: HOP-62
[15] = tested on: HOP-92
[16] = tested on: HT-29
[17] = tested on: Hs-578T
[18] = tested on: IGROV-1
[19] = tested on: K562
[20] = tested on: KM12
[21] = tested on: LOX IMVI
[22] = tested on: M14
[23] = tested on: MCF7
[24] = tested on: MDA-MB-231
[25] = tested on: MDA-MB-435
[26] = tested on: MDA-N
[27] = tested on: MOLT-4
[28] = tested on: Malme-3M
[29] = tested on: NCI-H226
[30] = tested on: NCI-H460
[31] = tested on: NCI-H522
[32] = tested on: NCI/ADR-RES
[33] = tested on: OVCAR-3
[34] = tested on: OVCAR-4
[35] = tested on: OVCAR-5
[36] = tested on: OVCAR-8
[37] = tested on: PC-3
[38] = tested on: RPMI-8226
[39] = tested on: RXF 393
[40] = tested on: SF-268
[41] = tested on: SF-295
[42] = tested on: SF-539
[43] = tested on: SK-MEL-28
[44] = tested on: SK-MEL-2
[45] = tested on: SK-MEL-5
[46] = tested on: SK-OV-3
[47] = tested on: SN12C
[48] = tested on: SNB-19
[49] = tested on: SNB-75
[50] = tested on: SR
[51] = tested on: SW-620
[52] = tested on: T47D
[53] = tested on: TK-10
[54] = tested on: U-251
[55] = tested on: UACC-257
[56] = tested on: UACC-62
[57] = tested on: UO-31
[58] = tested on: NCI-H23

Measured: GI50

O=C(O)C1CCc2ccc3ccccc3c2C1c1cccc2ccccc12 (configuration not stated)
19.4 µM: [12]
inactive: [1] 18.2 µM | [2] 30.8 µM | [3] 16.5 µM | [4] 29.6 µM | [5] 19.1 µM | [6] 68.2 µM | [7] 19.1 µM | [8] 25.9 µM | [9] 25.8 µM | [10] 30.5 µM | [11] 15.6 µM | [13] 26.6 µM | [14] 19 µM | [15] 19.1 µM | [16] 17.4 µM | [17] 33.2 µM | [18] 22.9 µM | [19] 32.3 µM | [20] 21.9 µM | [21] 19.5 µM | [22] 17.6 µM | [23] 34.7 µM | [24] 30.2 µM | [25] 48.6 µM | [26] 22.1 µM | [27] 19.8 µM | [28] 22.4 µM | [29] 24.7 µM | [30] 20 µM | [31] 21.4 µM | [32] 23.3 µM | [33] 16.3 µM | [34] 29 µM | [35] 18.4 µM | [36] 24.2 µM | [37] 19.3 µM | [38] 27.9 µM | [39] 19 µM | [40] 27.9 µM | [41] 23.9 µM | [42] 23.8 µM | [43] 18.7 µM | [44] 18.2 µM | [45] 16.5 µM | [46] 36.1 µM | [47] 24.2 µM | [48] 19.3 µM | [49] 22.9 µM | [50] 20.8 µM | [51] 28.2 µM | [52] 43.9 µM | [53] 44.5 µM | [54] 17.9 µM | [55] 25.9 µM | [56] 15.1 µM | [57] 25.8 µM

C/C(CC(O)(C(F)(F)Cl)C(F)(F)Cl)=N\Nc1ccccc1
32.1 µM: [12]
inactive: [1] 41.1 µM | [2] 40 µM | [3] 37.2 µM | [4] 27 µM | [5] 33.6 µM | [6] 22.2 µM | [7] 29 µM | [8] 31.8 µM | [9] 49 µM | [10] 23.1 µM | [11] 34.5 µM | [13] 22.5 µM | [15] 21.7 µM | [16] 42.9 µM | [17] 27.2 µM | [18] 36.3 µM | [19] 35.5 µM | [20] 29.1 µM | [21] 27.5 µM | [22] 29.4 µM | [23] 23.2 µM | [24] 47.6 µM | [25] 31.9 µM | [26] 43.6 µM | [27] 23.4 µM | [28] 32.4 µM | [29] 25.2 µM | [58] 19.3 µM | [30] 29.7 µM | [31] 28.5 µM | [32] 24.8 µM | [33] 19.1 µM | [34] 63.7 µM | [35] > 100 µM | [36] 36.7 µM | [37] 22.2 µM | [38] 30.2 µM | [39] 19.2 µM | [41] 42.3 µM | [42] 32.3 µM | [43] 47.2 µM | [44] 21.5 µM | [45] 19.1 µM | [46] 29.4 µM | [48] 36.9 µM | [49] 28.9 µM | [50] 39.1 µM | [51] 31 µM | [52] 28.2 µM | [53] 38.4 µM | [54] 28.2 µM | [55] 44.7 µM | [56] 43.3 µM | [57] 31.2 µM
